According to patent publication US6303618A, “Cyclin dependent kinase inhibiting purine derivatives” (priority 1997, dated 2001):
Several values for one entry are separate records, joined by “and”; a condition that tells them apart may be missing. Equal entries are not always repeated. Where two headings read alike, the source gives them in different places.

How the values were obtained:
CDK1 (p34 cdc2)/cyclin B = assay: CDK inhibition assay (histone H1 kinase), CDK1; assay type: biochemical, starfish (Marthasterias glacialis); settings: for IC50: CDK1, Table 1
Protocol: (§1) By way of example, however, a typical protocol is summarised below.
Histone H1 (type III-S (Sigma) 4° C.) 5 mg/ml in buffer C.
[^32 P]ATP […]: Make up using (multiples of) the following proportions:
DMSO cannot exceed 1% in the assay mixture. Inhibitors are added at 1/10 final assay volume and 10×final strength. DMSO stocks must therefore be diluted to 10×final desired concentration in ≤10% DMSO, ≥90% buffer C.
Start reaction in each tube at 30 second intervals by adding
5 ml [^32 P]ATP vortexing and placing in rack in waterbath at 30° C.
Terminate reaction after 10 min at 30 second intervals in tubes in same order by removing
25 ml reaction mix and spotting onto appropriately labelled filter, allowing to dry for 20-30 seconds and transferring to stirring 1% phosphoric acid.
Blank incubation is performed as above but without histone (add […] buffer C instead) Washing blank is […] ATP added directly to filter.

CDK2 = CDK2 (Homo sapiens, UniProt P24941); assay: CDK inhibition assay, CDK2; assay type: biochemical; settings: for IC50: Table 1
Text: (§2) Apart from reference compounds, the compounds listed are accompanied by an NU reference or identification code number.
as §1

[1] = Insolubility noted in the CDK assay; settings: at 100 μM
CDK4 = CDK4 (Homo sapiens, UniProt P11802); assay: CDK inhibition assay, CDK4; assay type: biochemical; settings: CDK4; Table 1; read-out: IC50 CDK4
Chain of CDK4 (P11802 whole entry, species assumed): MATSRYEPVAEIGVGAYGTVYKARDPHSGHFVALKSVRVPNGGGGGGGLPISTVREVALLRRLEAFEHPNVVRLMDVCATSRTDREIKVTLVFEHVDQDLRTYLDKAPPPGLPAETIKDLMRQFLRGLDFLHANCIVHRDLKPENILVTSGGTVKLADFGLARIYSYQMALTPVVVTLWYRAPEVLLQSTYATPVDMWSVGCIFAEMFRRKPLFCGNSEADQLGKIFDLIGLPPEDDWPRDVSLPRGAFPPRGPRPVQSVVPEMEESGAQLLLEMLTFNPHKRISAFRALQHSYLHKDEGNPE
Chain of CDK4 (P24385 whole entry partner, species assumed): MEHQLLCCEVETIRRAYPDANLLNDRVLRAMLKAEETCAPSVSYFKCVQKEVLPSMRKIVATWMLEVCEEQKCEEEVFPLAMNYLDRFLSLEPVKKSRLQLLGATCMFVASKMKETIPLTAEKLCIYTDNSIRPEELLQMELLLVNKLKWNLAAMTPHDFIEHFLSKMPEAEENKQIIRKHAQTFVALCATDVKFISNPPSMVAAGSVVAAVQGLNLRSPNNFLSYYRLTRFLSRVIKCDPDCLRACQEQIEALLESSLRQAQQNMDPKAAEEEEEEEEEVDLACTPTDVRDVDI
Text: as §2, §1

[2] = read-out: % inhibition CDK2, at 10 μM
[3] = at 100 μM, read-out: % inhibition CDK2
[4] = read-out: % inhibition CDK2, at 100 μM

Clc1nc(OCC2CCCCC2)c2[nH]cnc2n1 [NU6047, 2-chloro-6-cyclohexylmethoxypurine]
% inhibition CDK1 (CDK1 (p34 cdc2)/cyclin B; at 10 μM): 6 ± 4% | inhibition at 10 µM (CDK2; [2]): 5 ± 3% | insolubility in CDK1 assay [1]: Insol | insolubility in CDK2 assay [1]: Insol

CNc1cc(Cl)nc(N)n1 [NU6042, 2-amino-4-chloro-6-methylamino pyrimidine]
inhibition at 100 µM (CDK2; [3]): 14 ± 24%

CC1(C)OC[C@H](COc2nc(N)nc3[nH]cnc23)O1 [NU6025, 2-amino-6-[(S)-2',2'-dimethyl-1',3'-dioxolane-5'-methyl]oxypurine]
% inhibition CDK1 (CDK1 (p34 cdc2)/cyclin B; at 100 μM): 34 ± 2% | inhibition at 100 µM (CDK2; [4]): 28 ± 4%

Nc1nc(N)c(N=O)c(OCc2ccccc2)n1 [NU6039, 2,6-diamino-4-(benzylmethoxy) 5-nitrosopyrimidine]
% inhibition CDK1 (CDK1 (p34 cdc2)/cyclin B; at 100 μM): 54 ± 9% | inhibition at 100 µM (CDK2; [4]): 51 ± 2%

Nc1nc(OCc2cccc3ccccc23)c2nc[nH]c2n1 [NU6020, 2-amino-6-(1-naphthyl)-methyloxypurine]
% inhibition CDK1 (CDK1 (p34 cdc2)/cyclin B; at 10 μM): 10 ± 4% | IC50 (CDK4): > 100 µM | inhibition at 10 µM (CDK2; [2]): 3 ± 4% | insolubility in CDK2 assay [1]: Insol

c1nc(OCC2CCCCC2)c2[nH]cnc2n1 [NU2017, 6-cyclohexylmethoxypurine]
IC50 (CDK1 (p34 cdc2)/cyclin B): 16 µM | IC50 (CDK2; CDK2, read-out: IC50 CDK2): 15.5 µM | inhibition at 100 µM (CDK2; [4]): 61 ± 2%

CC1(C)OCC(COc2nc(N)nc3[nH]cnc23)O1 (stereo not shown) [NU6021, O^6-(2,2-Dimethyl-1,3-dioxolane-4-methoxy)guanine]
% inhibition CDK1 (CDK1 (p34 cdc2)/cyclin B; at 100 μM): 36 ± 9% | inhibition at 100 µM (CDK2; [4]): 35 ± 6%

Nc1nc(N)c(N)c(OCC2CCCCC2)n1 [NU6035, 2,5,6-triamino-4(cyclohexylmethoxy)-pyrimidine]
% inhibition CDK1 (CDK1 (p34 cdc2)/cyclin B; at 100 μM): 40 ± 4% | inhibition at 100 µM (CDK2; [4]): 54 ± 8%

Nc1nc(OCC2CCCC2)c2nc[nH]c2n1 [NU2068, O^6 -(Cyclopentyl)methylguanine]
IC50 (CDK1 (p34 cdc2)/cyclin B): 30 µM | IC50 (CDK4): 34 µM

Nc1nc(OCC23CC4CC(CC(C4)C2)C3)c2[nH]cnc2n1 [NU6014, 2-amino-6-adamantyl-methyloxypurine]
IC50 (CDK4): > 100 µM | inhibition at 10 µM (CDK2; [2]): 20 ± 4% | insolubility in CDK2 assay [1]: Insol

Nc1cc(OCC2CC=CCC2)nc(N)n1 (stereo not shown) [NU6046]
% inhibition CDK1 (CDK1 (p34 cdc2)/cyclin B; at 100 μM): 16 ± 13% | inhibition at 100 µM (CDK2; [4]): 8 ± 1%

Nc1nc(OCc2ccccc2)c2[nH]c(=O)[nH]c2n1 [NU6043, 2-Amino-6-benzyl-8-oxoguanine]
% inhibition CDK1 (CDK1 (p34 cdc2)/cyclin B; at 100 μM): 13 ± 9% | inhibition at 100 µM (CDK2; [3]): 8 ± 13%

Nc1nc(OCc2ccccc2)c2[nH]cnc2n1 [NU2005, 2-amino-6-benzyloxypurine]
IC50 (CDK1 (p34 cdc2)/cyclin B): 35 µM | IC50 (CDK4): 100 µM | IC50 (CDK2; IC50 CDK2, CDK2): 28.6 µM | inhibition at 100 µM (CDK2; [4]): 64 ± 3%

Nc1nc(OC[C@@H]2CCC(=O)N2)c2nc[nH]c2n1 [NU6031, 2-amino-6-[(S)-2'-oxopyrrolidin-5'-methyl]oxypurine]
% inhibition CDK1 (CDK1 (p34 cdc2)/cyclin B; at 100 μM): 26 ± 3% | IC50 (CDK4): > 1000 µM | IC50 (CDK2; CDK2, read-out: IC50 CDK2): 314 µM | inhibition at 100 µM (CDK2; [4]): 20 ± 2%

CC1(C)O[C@H]2[C@@H](O1)[C@@H](COc1nc(N)nc3[nH]cnc13)O[C@@H]1OC(C)(C)O[C@@H]12 [NU6017]
% inhibition CDK1 (CDK1 (p34 cdc2)/cyclin B; at 100 μM): 10 ± 6% | IC50 (CDK4): > 100 µM | inhibition at 100 µM (CDK2; [4]): 3 ± 7%

Nc1nc(OCC2COC3(CCCCC3)O2)c2nc[nH]c2n1 (stereo not shown) [NU6022, O^6-(1,4-Dioxaspiro[4.5]decane-2-methoxy)guanine]
% inhibition CDK1 (CDK1 (p34 cdc2)/cyclin B; at 100 μM): 26 ± 6% | inhibition at 100 µM (CDK2; [4]): 27 ± 4%

CN(C)c1nc(OCC2CCCCC2)c2nc[nH]c2n1 [NU6048, 2-dimethylamino-6-cyclohexyl methoxypurine]
% inhibition CDK1 (CDK1 (p34 cdc2)/cyclin B; at 10 μM): 27 ± 6% | inhibition at 10 µM (CDK2; at 10 μM, read-out: % inhibition CDK2): 31 ± 3% | insolubility in CDK1 assay [1]: Insol | insolubility in CDK2 assay [1]: Insol

Nc1cc(OCC2CCCCC2)nc(N)n1 [NU6034, 2,6-diamino-4(cyclohexylmethoxy)-pyrimidine]
inhibition at 10 µM (CDK2; [2]): 7 ± 3% | insolubility in CDK2 assay [1]: Insol

Nc1nc(OCC2CC=CCC2)c2nc[nH]c2n1 (stereo not shown) [NU2073, O^6-(3'-Cyclohexenyl)methylguanine]
IC50 (CDK1 (p34 cdc2)/cyclin B): 3.2 µM | IC50 (CDK4): 53 µM | IC50 (CDK2; CDK2, read-out: IC50 CDK2): 98 µM and 18.8 µM | inhibition at 100 µM (CDK2; [4]): 87 ± 1%

CC1(C)OC[C@@H](COc2nc(N)nc3[nH]cnc23)O1 [NU6024, 2-amino-6-[(R)-2',2'-dimethyl-1',3'-dioxolane-5'-methyl]oxypurine]
% inhibition CDK1 (CDK1 (p34 cdc2)/cyclin B; at 100 μM): 50 ± 1% | inhibition at 100 µM (CDK2; [3]): 38 ± 3%

Nc1nc(OC[C@H]2CCC(=O)N2)c2nc[nH]c2n1 [NU6032, 2-amino-6-[(R)-2'-oxopyrrolidin-5'-methyl]oxypurine]
% inhibition CDK1 (CDK1 (p34 cdc2)/cyclin B; at 100 μM): 54 ± 2% | IC50 (CDK4): > 1000 µM | IC50 (CDK2; CDK2, read-out: IC50 CDK2): 123 µM | inhibition at 100 µM (CDK2; [4]): 37 ± 2%
